Measured values: US7011772B2, “UV absorbing mixture with textile fiber affinity” (BASF Aktiengesellschaft, priority 2000, dated 2006)

What was measured:
[1] = UV protection factor UPF of cotton fabric after laundry aftertreatment in final rinse bath; settings: in Lenor care conditioner 1000 ppm, dried white cotton fabric, AS/NZS 4399:1996
Method: The UV protection factor UPF of textiles is determined in accordance with the Australian/New Zealand standard AS/NZS 4399:1996 using an in vitro method. It measures the UV transmission of the textile object. The spectral transmission can be used to determine the protection factor directly using the following equation: [formula] where • Sλ=spectral irradiation of the sun in the UV region at the wavelength λ • Eλ=spectral erythema action of the UV radiation at the wavelength λ • Tλ=spectral transmission of the textile object at the wavelength λ.
White woven cotton fabric having a basis weight of 100 g/mm^2 [sic] and a UV protection factor UPF of 4.50 was washed using a water hardness of 3 mmol/l. The laundering process was a main wash cycle at 40° C. with a commercially available laundry detergent (Ariel® Color) and a subsequent conditioning rinse. The conditioner used was a commercially available formulation (Lenor® care) in a dosage of 1000 ppm, based on the liquor. […] After the conditioning rinse cycle, the fabric was removed and its UV protection factor UPF was determined in the dried state.

[2] = Photostability of dyed cotton fabric after conditioning rinse (SUNTEST exposure, K/S values); settings: 200 ppm based on the liquor; 14 hours SUNTEST exposure under outdoor conditions; K/S at maximum of K/S spectra; higher = higher photostability
Method: Woven cotton fabric dyed with Reactive Black 5 to ⅓ standard depth of shade was treated in the conditioning rinse cycle with a commercially available formulation (Lenor® care, 1000 ppm based on the liquor) in the presence of an inventive UV absorber mixture M1, M2, M3, M4, M5, M6 or M7 (each at 200 ppm based on the liquor) in a liquor ratio of 12.5:1. After the conditioning rinse cycle, the dyed fabric was removed and tested for photostability in the dried state.
The samples were exposed in a SUNTEST® tabletop accelerated lighting unit (from Heraeus, Hanau) for 14 hours under outdoor conditions. A spectrophotometer incl. an integration sphere (“Lambda 900” from Perkin Elmer) was used to measure the reflectance spectra of dyeings before and after exposure. These reflectance spectra were converted in line with the Kubelka-Munk theory into K/S spectra (K=absorption coefficient, S=scattering coefficient). The photostabilities are evaluated with reference to the K/S values after 14 hour exposure relative to the K/S values prior to exposure (K/S in each case at the maximum of the K/S spectra). The higher the value in % reported in Table 2, the higher the photostability.

CCCCC(CC)COC(=O)C(C#N)=C(c1ccccc1)c1ccccc1 (stereo not shown) [Mixture A1, 2-ethylhexyl 2-cyano-3,3-diphenylacrylate]
UPF with 50 ppm ([1]; 50 ppm UV absorber based on the liquor): 8.6
UPF with 100 ppm ([1]; 100 ppm UV absorber based on the liquor): 13.5
UPF with 200 ppm ([1]; 200 ppm UV absorber based on the liquor): 21.1
K/S (14 h)/K/S (0 h) × 100% [2]: 67.7%
